A short description of this data set: Assay (III) ThT fibrillation assay for physical stability. The format is physicochemical. The text has this:
ASSAY (III)—ThT Fibrillation Assays for the Assessment of Physical Stability of Protein formulations Low physical stability of a polypeptide may lead to amyloid fibril formation, which is observed as well-ordered, thread-like macromolecular structures in the sample eventually resulting in gel formation. This has traditionally been measured by visual inspection of the sample. However, that kind of measurement is very subjective and depending on the observer. Therefore, the application of a small molecule indicator probe is much more advantageous. Thioflavin T (ThT) is such a probe and has a distinct fluorescence signature when binding to fibrils [Naiki et al. (1989) Anal. Biochem. 177, 244-249; LeVine (1999) Methods. Enzymol. […], 274-284]. The time course for fibril formation can be described by a sigmoidal curve with the following expression [Nielsen et al. (2001) Biochemistry 40, 6036-6046]: [formula] Here, F is the ThT fluorescence at the time t. The constant t0 is the time needed to reach 50% of maximum fluorescence. […] Few of those intermediates nucleate to form a template onto which further intermediates may assembly and the fibrillation proceeds. The lag-time corresponds to the interval in which the critical mass of nucleus is built up and the apparent rate constant is the rate with which the fibril itself is formed. Sample Preparation Samples were prepared freshly before each assay. Each sample composition is described in each example. The pH of the sample was adjusted to the desired value using appropriate amounts of concentrated NaOH and HClO4 or HCl. Thioflavin T was added to the samples from a stock solution in H2O to a final concentration of 1 μM. Sample aliquots of 200 μl were placed in a 96 well microtiter plate (Packard OptiPlate™-96, white polystyrene). Usually, four or eight replica of each sample (corresponding to one test condition) were placed in one column of wells. The plate was sealed with Scotch Pad (Qiagen). Incubation and Fluorescence Measurement Incubation at given temperature, shaking and measurement of the ThT fluorescence emission were done in a Fluoroskan Ascent FL fluorescence platereader or Varioskan platereader (Thermo Labsystems). The temperature was adjusted to 37° C. The orbital shaking was adjusted to 960 rpm with an amplitude of 1 mm in all the presented data. Fluorescence measurement was done using excitation through a 444 nm filter and measurement of emission through a 485 nm filter. Each run was initiated by incubating the plate at the assay temperature for 10 min. The plate was measured every 20 minutes for a desired period of time. Between each measurement, the plate was shaken and heated as described. Data Handling The measurement points were saved in Microsoft Excel format for further processing and curve drawing and fitting was performed using GraphPad Prism. The background emission from ThT in the absence of fibrils was negligible. The data points are typically a mean of four or eight samples and shown with standard deviation error bars. Only data obtained in the same experiment (i.e. samples on the same plate) are presented in the same graph ensuring a relative measure of fibrillation between experiments. The data set may be fitted to Eq. (1). However, since full sigmodial curves in this case are not always achieved during the measurement time, the degree of fibrillation is expressed as ThT fluorescence tabulated as the mean of the samples and shown with the standard deviation at various time points. Measurement of Initial and Final Concentrations The polypeptide concentration in each of the tested formulations were measured both before application in the ThT fibrillation assay (“Initial”) and after completion of the ThT fibrillation (“After ThT assay”). Concentrations were determined by reverse HPLC methods using a pramlintide standard as a reference. Before measurement after completion 150 μl was collected from each of the replica and transferred to an Eppendorf tube. […]

Starred links: 1 amine or outer side, 2 acyl side, 3 side chain; linkers in the order of their positions; H or OH if unused. Positions of bridges follow the written chain, without caps; N, C: chain ends. Residues, ends and D or L forms follow the SMILES beside them. Groups on a side chain read outwards from the residue. *: point of attachment. C20 diacid = O=C(O)CCCCCCCCCCCCCCCCCCC(=O)*; C18 diacid = O=C(O)CCCCCCCCCCCCCCCCC(=O)*; γGlu = O=C(O)[C@H](CCC(=O)[*:2])N[*:1]; AEEA = NCCOCCOCC(=O)O A value given as a limit tells only on which side of the number the result lay.

We go through four compounds from patent US8722849B2, “Polypeptides” (Novo Nordisk A/S, priority 2011, dated 2014).

For `CC[C@H](C)[C@H](NC(=O)[C@@H]1CCCN1C(=O)CNC(=O)[C@H](Cc1ccccc1)NC(=O)[C@H](CC(N)=O)NC(=O)[C@H](CCCCNC(=O)COCCOCCNC(=O)COCCOCCNC(=O)CC[C@H](NC(=O)CCCCCCCCCCCCCCCCC(=O)O)C(=O)O)NC(=O)[C@H](CO)NC(=O)[C@H](CO)NC(=O)[C@H](Cc1c[nH]cn1)NC(=O)[C@H](Cc1c[nH]cn1)NC(=O)[C@H](CC(C)C)NC(=O)[C@H](Cc1ccccc1)NC(=O)[C@H](CCC(=O)O)NC(=O)[C@H](C)NC(=O)[C@H](CC(C)C)NC(=O)[C@H](CCCNC(=N)N)NC(=O)[C@H](CCC(N)=O)NC(=O)[C@@H](NC(=O)[C@H](C)NC(=O)[C@@H]1CSSC[C@H](NC(=O)[C@@H](N)CCCCN)C(=O)N[C@@H](CC(N)=O)C(=O)N[C@@H]([C@@H](C)O)C(=O)N[C@@H](C)C(=O)N[C@@H]([C@@H](C)O)C(=O)N1)[C@@H](C)O)C(=O)N[C@@H](CC(C)C)C(=O)N1CCC[C@H]1C(=O)N1CCC[C@H]1C(=O)N[C@H](C(=O)N[C@@H](CC(N)=O)C(=O)N[C@H](C(=O)NCC(=O)N[C@@H](CO)C(=O)N[C@@H](CCC(=O)O)C(=O)N[C@H](C(=O)N[C@@H](Cc1ccc(O)cc1)C(N)=O)[C@@H](C)O)C(C)C)[C@@H](C)O` [Example 74, N-epsilon21-[2-(2-{2-[2-(2-{2-[(S)-4-Carboxy-4-(17-carboxyheptadecanoylamino)butyrylamino]ethoxy}ethoxy)acetylamino]ethoxy}ethoxy)acetyl]-[Glu14,His17,Lys21,Glu35]-pramlintide] (H-KCNTATCATQRLAEFLHHSSK([AEEA-AEEA-γGlu-C18 diacid])NFGPILPPTNVGSETY-NH2; disulfide 2-7 (inferred)), the “ThT pH 4.0 lag time” value reads like this: (Table 8) greater than 45 h; (Table 9) greater than 45 h; (ThT fibrillation assay) greater than 45 h. Besides, for the setting “ThT fibrillation assay”, the “ThT pH 4.0 lag time (h)” value is on record as greater than 45 h.
`CC(C)C[C@H](NC(=O)[C@H](CCCNC(=N)N)NC(=O)[C@H](CCC(N)=O)NC(=O)[C@@H](NC(=O)[C@H](C)NC(=O)[C@@H]1CSSC[C@H](NC(=O)[C@H](Cc2c[nH]cn2)NC(=O)CC[C@H](NC(=O)CCCCCCCCCCCCCCCCCCC(=O)O)C(=O)O)C(=O)N[C@@H](CC(N)=O)C(=O)N[C@@H]([C@@H](C)O)C(=O)N[C@@H](C)C(=O)N[C@@H]([C@@H](C)O)C(=O)N1)[C@@H](C)O)C(=O)N[C@@H](C)C(=O)N[C@@H](CCC(=O)O)C(=O)N[C@@H](Cc1ccccc1)C(=O)N[C@@H](CC(C)C)C(=O)N[C@@H](Cc1c[nH]cn1)C(=O)N[C@@H](CCCNC(=N)N)C(=O)N[C@@H](CO)C(=O)N[C@@H](CO)C(=O)N[C@@H](CC(N)=O)C(=O)N[C@@H](CC(N)=O)C(=O)N[C@@H](Cc1ccccc1)C(=O)NCC(=O)N[C@@H](C)C(=O)N1CCC[C@H]1C(=O)N[C@@H](CC(C)C)C(=O)N[C@@H](CO)C(=O)N[C@@H](CO)C(=O)N[C@H](C(=O)N[C@@H](CC(N)=O)C(=O)N[C@H](C(=O)NCC(=O)N[C@@H](CO)C(=O)N[C@@H](CC(N)=O)C(=O)N[C@H](C(=O)N[C@@H](Cc1ccc(O)cc1)C(N)=O)[C@@H](C)O)C(C)C)[C@@H](C)O` [Example 6, N-alpha-[(S)-4-Carboxy-4-(19-carboxynonadecanoylamino)butyryl]-[His1,Glu14,His17,Arg18,Ala25,Pro26,Ser28,Ser29]-pramlintide] ({C20 diacid-γGlu}-HCNTATCATQRLAEFLHRSSNNFGAPLSSTNVGSNTY-NH2; disulfide 2-7 (inferred)): the “ThT pH 4.0 lag time (h)” value (ThT fibrillation assay) amounted to 14 h.
The same measure, in the same setting: to `CC(C)C[C@H](NC(=O)[C@H](CCCNC(=N)N)NC(=O)[C@H](CCC(N)=O)NC(=O)[C@@H](NC(=O)[C@H](C)NC(=O)[C@@H]1CSSC[C@H](NC(=O)[C@@H](N)CCCCNC(=O)CC[C@H](NC(=O)CCCCCCCCCCCCCCCCCCC(=O)O)C(=O)O)C(=O)N[C@@H](CC(N)=O)C(=O)N[C@@H]([C@@H](C)O)C(=O)N[C@@H](C)C(=O)N[C@@H]([C@@H](C)O)C(=O)N1)[C@@H](C)O)C(=O)N[C@@H](C)C(=O)N[C@@H](CCC(=O)O)C(=O)N[C@@H](Cc1ccccc1)C(=O)N[C@@H](CC(C)C)C(=O)N[C@@H](Cc1c[nH]cn1)C(=O)N[C@@H](Cc1c[nH]cn1)C(=O)N[C@@H](CO)C(=O)N[C@@H](CO)C(=O)N[C@@H](CCC(N)=O)C(=O)N[C@@H](CC(N)=O)C(=O)N[C@@H](Cc1ccccc1)C(=O)NCC(=O)N[C@@H](C)C(=O)N1CCC[C@H]1C(=O)N[C@@H](CC(C)C)C(=O)N[C@@H](CO)C(=O)N[C@@H](CO)C(=O)N[C@H](C(=O)N[C@@H](CC(N)=O)C(=O)N[C@H](C(=O)NCC(=O)N[C@@H](CO)C(=O)N[C@@H](CC(N)=O)C(=O)N[C@H](C(=O)N1CCC[C@H]1C(N)=O)[C@@H](C)O)C(C)C)[C@@H](C)O` [Example 151, N-epsilon1-[(S)-4-Carboxy-4-(19-carboxynonadecanoylamino)butyryl]-[Glu14,His17,Gln21,Ala25,Pro26,Ser28,Ser29,Pro37]-pramlintide] (H-K([γGlu-C20 diacid])CNTATCATQRLAEFLHHSSQNFGAPLSSTNVGSNTP-NH2; disulfide 2-7 (inferred)) belongs 9 h; to `CC[C@H](C)[C@H](NC(=O)[C@H](CCCCNC(=O)COCCOCCNC(=O)COCCOCCNC(=O)CC[C@H](NC(=O)CCCCCCCCCCCCCCCCC(=O)O)C(=O)O)NC(=O)CNC(=O)[C@H](Cc1ccccc1)NC(=O)[C@H](CC(N)=O)NC(=O)[C@H](CC(N)=O)NC(=O)[C@H](CO)NC(=O)[C@H](CO)NC(=O)[C@H](Cc1c[nH]cn1)NC(=O)[C@@H](NC(=O)[C@H](CC(C)C)NC(=O)[C@H](Cc1ccccc1)NC(=O)[C@H](CCC(=O)O)NC(=O)[C@H](C)NC(=O)[C@H](CC(C)C)NC(=O)[C@H](CCCNC(=N)N)NC(=O)[C@H](CCC(N)=O)NC(=O)[C@@H](NC(=O)[C@H](C)NC(=O)[C@@H]1CSSC[C@H](NC(=O)[C@@H](N)CCCCN)C(=O)N[C@@H](CC(N)=O)C(=O)N[C@@H]([C@@H](C)O)C(=O)N[C@@H](C)C(=O)N[C@@H]([C@@H](C)O)C(=O)N1)[C@@H](C)O)C(C)C)C(=O)N[C@@H](CC(C)C)C(=O)N1CCC[C@H]1C(=O)N1CCC[C@H]1C(=O)N[C@H](C(=O)N[C@@H](CC(N)=O)C(=O)N[C@H](C(=O)NCC(=O)N[C@@H](CO)C(=O)N[C@@H](CC(N)=O)C(=O)N[C@H](C(=O)N[C@@H](Cc1ccc(O)cc1)C(N)=O)[C@@H](C)O)C(C)C)[C@@H](C)O` [Example 126, N-epsilon25-[2-(2-{2-[2-(2-{2-[(S)-4-Carboxy-4-(17-carboxyheptadecanoylamino)butyrylamino]ethoxy}ethoxy)acetylamino]ethoxy}ethoxy)acetyl]-[Glu14,Lys25]-pramlintide] (H-KCNTATCATQRLAEFLVHSSNNFGK([AEEA-AEEA-γGlu-C18 diacid])ILPPTNVGSNTY-NH2; disulfide 2-7 (inferred)), 10 h.
